Consider eleven compounds from ChEMBL document CHEMBL2040810, “In search for new chemical entities as adenosine receptor ligands: development of agents based on benzo-γ-pyrone skeleton” (Eur J Med Chem, 2012).

The term Ki denotes the dissociation constant of the complex between target and ligand, obtained from inhibition or displacement. Higher therefore signals weaker binding.

Molecules are shown by their SMILES. Calls of active or inactive are those of the source. No cut-off for these calls is given here.

Test [1] has as its target T1, Adenosine receptor A1 (Homo sapiens) (UniProt P30542).
T1 sequence (whole entry): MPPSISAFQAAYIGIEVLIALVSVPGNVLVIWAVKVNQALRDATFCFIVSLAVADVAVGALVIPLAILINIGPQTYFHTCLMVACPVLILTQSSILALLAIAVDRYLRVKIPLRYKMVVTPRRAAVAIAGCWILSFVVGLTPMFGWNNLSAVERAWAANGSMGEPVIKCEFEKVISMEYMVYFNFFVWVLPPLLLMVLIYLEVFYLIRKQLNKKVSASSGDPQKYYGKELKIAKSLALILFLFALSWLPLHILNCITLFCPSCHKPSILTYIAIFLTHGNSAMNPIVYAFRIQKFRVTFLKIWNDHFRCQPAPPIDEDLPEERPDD
The test is described as follows: Displacement of [3H]DPCPX from human adenosine A1 receptor expressed in CHO cells at 10 uM after 60 mins by liquid scintillation counting. It counts as cell-based. Background: Loss of bound radioactivity is the signal in a displacement assay; it reports binding, not function.

Test [2] has as its target T2, Adenosine receptor A3 (Homo sapiens) (UniProt P0DMS8).
T2 sequence (whole entry): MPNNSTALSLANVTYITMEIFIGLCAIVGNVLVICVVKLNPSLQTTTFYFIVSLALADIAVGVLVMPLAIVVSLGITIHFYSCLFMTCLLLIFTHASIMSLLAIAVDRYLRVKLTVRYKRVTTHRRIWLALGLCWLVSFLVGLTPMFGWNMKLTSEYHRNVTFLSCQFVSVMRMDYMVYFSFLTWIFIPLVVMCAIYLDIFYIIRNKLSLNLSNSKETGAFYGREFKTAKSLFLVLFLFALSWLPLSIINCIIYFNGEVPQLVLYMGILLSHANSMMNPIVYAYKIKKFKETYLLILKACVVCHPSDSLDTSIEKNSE
The experiment in a line: Displacement of [3H]NECA from human adenosine A3 receptor expressed in HeLa cells at 10 uM after 30 mins by liquid scintillation counting. In kind it is cell-based.

Test [3] concerns the target Adenosine receptor A2a (Homo sapiens) (UniProt P29274). The test is described as follows: Displacement of [3H][…] from human adenosine A2A receptor expressed in HeLa cells at 10 uM after 30 mins by liquid scintillation counting. It counts as cell-based.
Test [4] deals with T3, Adenosine receptor A2b (Homo sapiens) (UniProt P29275).
T3 sequence (whole entry): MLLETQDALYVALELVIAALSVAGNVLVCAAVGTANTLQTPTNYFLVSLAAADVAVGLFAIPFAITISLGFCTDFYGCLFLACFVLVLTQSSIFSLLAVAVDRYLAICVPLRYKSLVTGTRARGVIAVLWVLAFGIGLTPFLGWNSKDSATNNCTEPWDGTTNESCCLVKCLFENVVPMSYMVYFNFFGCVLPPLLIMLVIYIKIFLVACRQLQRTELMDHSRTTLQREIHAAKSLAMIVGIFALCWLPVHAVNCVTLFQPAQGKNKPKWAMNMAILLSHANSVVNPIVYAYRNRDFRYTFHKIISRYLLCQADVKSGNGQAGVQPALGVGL
The test is described as follows: Displacement of [3H]DPCPX from human adenosine A2B receptor expressed in HEK293 cells at 10 uM after 30 mins by liquid scintillation counting. In kind it is cell-based.

Another test addresses T4, Adenosine receptor A2b (Homo sapiens, UniProt P29275).
T4 sequence (P29275 whole entry): T3 sequence (whole entry)
The experiment in a line: Displacement of [3H]DPCPX from human adenosine A2B receptor expressed in HEK293 cells after 30 mins by liquid scintillation counting. In kind it is cell-based.

For a further test, the species on record is Homo sapiens. The experiment in a line: Selectivity ratio for human A2B adenosine receptor over human A3 adenosine receptor.

Chain of Adenosine receptor A2a (Homo sapiens) (P29274 whole entry): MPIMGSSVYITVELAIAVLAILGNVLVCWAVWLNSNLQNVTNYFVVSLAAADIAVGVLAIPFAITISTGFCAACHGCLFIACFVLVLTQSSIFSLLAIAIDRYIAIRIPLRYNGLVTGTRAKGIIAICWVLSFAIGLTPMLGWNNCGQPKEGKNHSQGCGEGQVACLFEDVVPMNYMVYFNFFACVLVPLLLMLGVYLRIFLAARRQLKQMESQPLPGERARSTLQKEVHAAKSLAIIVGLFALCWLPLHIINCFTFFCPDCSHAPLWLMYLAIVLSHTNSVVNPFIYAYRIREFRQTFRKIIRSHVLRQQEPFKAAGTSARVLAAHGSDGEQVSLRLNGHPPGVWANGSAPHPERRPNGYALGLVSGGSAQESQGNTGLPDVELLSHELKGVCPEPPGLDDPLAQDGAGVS

In the case of `O=C(O)c1cc(=O)c2ccccc2o1`, the result in test [1] and in test [2] was Active.
Consider `O=C(Nc1ccc(O)cc1)c1cc(=O)c2ccccc2o1`, for which the result in test [3], in test [1], in test [2] and in test [4] was Active.
In the case of `O=C(Nc1ccc(O)c(O)c1)c1cc(=O)c2ccccc2o1`, the outcome in test [3], in test [1], in test [2] and in test [4] was Active.
On to `COc1ccc(NC(=O)c2coc3ccccc3c2=O)cc1OC`, for which the Activity in test [4] is above 50%. Besides, at Adenosine receptor A2b, the Ki is 6.39 µM.
On to `COc1ccc(NC(=O)c2cc(=O)c3ccccc3o2)cc1OC`, for which the outcome in test [3], in test [1], in test [2] and in test [4] was Active.
Compound `COc1ccc(NC(=O)c2coc3ccccc3c2=O)cc1O` returned an Activity in test [4] above 50%. At Adenosine receptor A2b, this compound had a Ki of 5.82 µM.
The corresponding values for `O=C(Nc1ccc(O)cc1)c1coc2ccccc2c1=O` are above 50% and 2.89 µM.
As for `COc1ccc(NC(=O)c2cc(=O)c3ccccc3o2)cc1O`, the outcome in test [3], in test [1], in test [2] and in test [4] was Active.
As for `O=C(Nc1ccccc1)c1cc(=O)c2ccccc2o1`, the result in test [3], in test [1], in test [2] and in test [4] was Active.
Regarding `O=C(Nc1ccc(O)c(O)c1)c1coc2ccccc2c1=O`, the Activity in test [4] was above 50%. This compound also yielded a Ki on Adenosine receptor A2b of 1.35 µM.
As for `O=C(Nc1ccccc1)c1coc2ccccc2c1=O`, the Activity in test [3] is 3%; in test [1] it was 3%; in test [4], above 50%. In addition, the Selectivity ratio in the test filed under Homo sapiens was 2. The Ki on Adenosine receptor A2b worked out at 8.51 µM.
